The values below are quoted from earlier work in US4533546A, “Antiinflammatory analgesic gelled ointments” (Lederle (Japan), Ltd., priority 1983, dated 1985).

Each structure is given as a SMILES string.

The test system of one data set is digestive organs. Conditions: oral, background statement in words.
The conditions of data set [1]: in water and various pharmaceutically acceptable solvents; in words.

In the case of `O=C(O)Cc1ccc(-c2ccccc2)cc1` [4-biphenylylacetic acid], the side-effects entry with digestive organs is listed as “side-effects on the digestive organs”. Moreover, the solubility result in data set [1] was “insoluble or only sparingly soluble in water and various pharmaceutically acceptable solvents”.

Turning to `CC(C)Cc1ccc(CC(=O)O)cc1` [ibufenac], the side-effects result in the data set with digestive organs is recorded as “side-effects on the digestive organs”.

As to `CC(C)Cc1ccc(C(C)C(=O)O)cc1` (centres unmarked) [ibuprofen], the side-effects entry in the data set on digestive organs was “side-effects on the digestive organs”.

As to `COc1ccc2c(c1)c(CC(=O)O)c(C)n2C(=O)c1ccc(Cl)cc1` [indomethacin], the side-effects result in the data set on digestive organs is listed as “side-effects on the digestive organs”.
